# According to US20040023972A1, “Use of substituted imidazo[1,2-a]-pyridin-, -pyrimidin-and-pyrazin-3-yl-amine derivatives in the preparation of medicaments for inhibiting NOS” (Gruenenthal GmbH, priority 2000, published 2004):
# Target: T1, NO synthase (Rattus norvegicus, UniProt P29476)
# T1 construct: the supernatant was then removed by decantation and frozen in portions at −80° C; from tissue; host or cells: rat cerebellum, 20,000 g supernatant of homogenate
# Test: HTS-NOS assay (NOS assay): conversion of radioactive arginine, cation-exchanger filter plate
# Assay type: biochemical
# Conditions: 10 μM
# Outline: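 Rat cerebellum supernatant as NOS source, incubated with radiolabelled arginine plus cofactors including NADPH at 25 °C for 5-60 min depending on enzyme activity. Unconverted arginine was trapped on a cation-exchange filter plate, citrulline washed out, and bound arginine counted by scintillation; % inhibition versus no-compound reactions.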
row,SMILES,HTS-NOS assay: % inhibition (10 μM)
1,"[C-]#[N+]CCCCCCNc1c(-c2ccccc2C)nc2cc(C)ccn12 [Example 97, Methylidyne-[6-(7-methyl-2-o-tolyl-imidazo[1,2-a]pyridin-3-ylamino)-hexyl]-ammonium]",62%
2,"Cc1ccn2c(NC(C)(C)CC(C)(C)C)c(-c3ccc(CO)o3)nc2c1 [Example 102, {5-[7-Methyl-3-(1,1,33-tetramethyl-butylamino)-imidazo[1,2-a]pyridin-2-yl]-furan-2-yl}-methanol]",59%
3,"[C-]#[N+]CCCCCCNc1c(-c2ccc(-c3ccccc3Cl)o2)nc2cccc(C)n12 [Example 103, (6-{2-[5-(2-Chlorophenyl)-furan-2-yl]-5-methyl-imidazo[1,2-a]pyridin-3-ylamino)-hexyl)-methylidyne-ammonium]",50%
4,"C#[N+]CCCCCCNc1c(-c2ccccc2C)nc2cc(C)cc(C)n12 [Example 106, [6-(5,7-Dimethyl-2-o-tolyl-imidazo[1,2-a]-pyridin-3-ylamino)-hexyl]-methylidyne-ammonium]",60%
5,"[C-]#[N+]CCCCCCNc1c(-c2ccccn2)nc2cc(C)ccn12 [Example 107, Methylidyne-[6-(7-methyl-2-pyridin-2-yl-imidazo[1,2-a]pyridin-3-ylamino)-hexyl]-ammonium]",50%
6,"C#[N+]CCCCCCNc1c(-c2ccc(OC)c(OC)c2)nc2cc(C)ccn12 [Example 109, {6-[2-(3,4-Dimethoxy-phenyl)-7-methyl-imidazo[1,2-a]pyridin-3-ylamino]-hexyl}-methylidyne-ammonium]",51%
7,"Cc1cc(C)n2c(NC3CCCCC3)c(-c3ccccn3)nc2c1 [Example 114, Cyclohexyl-(5,7-dimethyt-2-pyridin-2-yl-imidazo[1,2-a]pyridin-3-yl)-amine]",53%
8,"[C-]#[N+]CCCCCCNc1c(-c2ccccc2F)nc2cc(C)cc(C)n12 [Example 116, {6-[2-(2-Fluoro-phenyl)-5,7-dimethyl-imidazo[1,2-a]pyridin-3-ylamino]-hexyl}-methylidyne-ammonium]",60%
9,"[C-]#[N+]CCCCCCNc1c(-c2cc3ccccc3c3ccccc23)nc2cc(C)ccn12 [Example 118, Methylidyne-[6-(7-methyl-2-phenanthren-9-yl-imidazo[1,2-a]pyridin-3-ylamino)-hexyl]-ammonium]",56%

# Same assay, conditions: read-out: HTS-NOS assay: % inhibition (10 μM)
row,SMILES,inhibition at 10 µM
1,"Cc1ccn2c(NC(C)(C)C)c(C)nc2c1 [Example 94, Tert-butyl-(2,7-dimethyl-imidazo[1,2-a]-pyridin-3-yl)-amine]",65%
2,"Cc1ccc(-c2nc3cc(C)cc(C)n3c2NC(C)(C)CC(C)(C)C)cc1 [Example 95, (5,7-Dimethyl-2-p-tolyl-imidazo[1,2-a]-pyridin-3-yl)-(1,1,3,3-tetramethyl-butyl)-amine]",70%
3,"Cc1ccn2c(NC(C)(C)CC(C)(C)C)c(-c3ccc(-c4cccc(Cl)c4)o3)nc2c1 [Example 98, {2-[5-(3-Chlorophenyl)-furan-2-yl]-7-methyl-imidazo[1,2-a]pyridin-3-yl}-(1,1,3,3-tetramethyl-butyl)-amine]",62%
4,"COc1ccccc1-c1nc2cc(C)ccn2c1NC(C)(C)CC(C)(C)C [Example 101, [2-(2-Methoxy-phenyl)-7-methyl-imidazo[1,2-a]pyridin-3-yl]-(1,1,3,3-tetramethyl-butyl)-amine]",58%
5,"COc1cccc(-c2nc3cc(C)cc(C)n3c2NC(C)(C)CC(C)(C)C)c1OC [Example 108, (2-(2,3-Dimethoxy-phenyl)-5,7-dimethyl-imidazo[1,2-a]pyridin-3-yl]-(1,1,3,3-tetramethyl-butyl)-amine]",73%
6,"Cc1ccn2c(NC(C)(C)C)c(-c3ccc(C(=O)O)s3)nc2c1 [Example 110, 5-(3-Tert-butylamino-7-methyl-imidazo[1,2-a]pyridin-2-yl)-thiophene-2-carboxylic acid]",61%
7,"Cc1ccc2nc(-c3cccc(Cl)c3Cl)c(NC(C)(C)CC(C)(C)C)n2c1 [Example 112, [2-(2,3-Dichloro-phenyl)-6-methyl-imidazo[1,2-a]pyridin-3-yl]-(1,1,3,3-tetramethyl-butyl)-amine]",52%
8,"CCCCNc1c(-c2ccc(C(=O)O)s2)nc2cnccn12 [Example 113, 5-(3-Butylamino-imidazo[1,2-a]pyrazin-2-yl)-thiophene-2-carboxylic acid]",54%
9,"CC(C)(C)Nc1c(-c2ccc(C(=O)O)s2)nc2cnccn12 [Example 119, 5-(3-Tert-butylamino-imidazo[1,2-a]pyrazin-2-yl)-thiophene-2-carboxylic acid]",56%

# The remaining lines, values ahead:
row,inhibition at 10 µM,SMILES
1,52%,"Cc1ccn2c(NC(C)(C)C)c(C3CCCCC3)nc2c1 [Example 93, Tert-butyl-(2-cyclohexyl-7-methyl-imidazo[1,2-a]pyridin-3-yl)-amine]"
2,55%,"Cc1cccc(C)c1Nc1c(-c2cccc(Cl)c2Cl)nc2c(C)cccn12 [Example 96, [2-(2,3-Dichlorophenyl)-8-methyl-imidazo[1,2-a]pyridin-3-yl]-(2,6-dimethyl-phenyl)-amine]"
3,66%,"Cc1ccn2c(NC3CCCCC3)c(-c3ccc([N+](=O)[O-])o3)nc2c1 [Example 99, Cyclohexyl-[7-methyl-2-(5-nitro-furan-2-yl)-imidazo[1,2-a]pyridin-3-yl]-amine]"
4,50%,"Cc1ccn2c(NC3CCCCC3)c(-c3ccccc3Br)nc2c1 [Example 100, [2-(2-Bromophenyl)-7-methyl-imidazo[1,2-a]pyridin-3-yl]-cyclohexyl-amine]"
5,63%,"Cc1cc(C)n2c(NC3CCCCC3)c(-c3ccc([N+](=O)[O-])o3)nc2c1 [Example 104, Cyclohexyl-[5,7-dimethyl-2-(5-nitro-furan-2-yl)-imidazo[1,2-a]pyridin-3-yl]-amine]"
6,65%,"Cc1ccn2c(NC3CCCCC3)c(-c3cc(C)c(C)o3)nc2c1 [Example 105, Cyclohexyl-[2-(4,5-dimethyl-furan-2-yl)-7-methyl-imidazo[1,2-a]pyridin-3-yl]-amine]"
7,52%,"Cc1cccn2c(NC3CCCCC3)c(-c3ccncc3)nc12 [Example 111, Cyclohexyl-(8-methyl-2-pyridin-4-yl-imidazo[1,2-a]pyridin-3-yl)-amine]"
8,59%,"Cc1cccn2c(NC(C)(C)CC(C)(C)C)c(-c3cc4ccccc4o3)nc12 [Example 115, (2-Benzofuran-2-yl-8-methyl-imidazo[1,2-a]pyridin-3-yl)-(1,1,3,3-tetramethyl-butyl)-amine]"
9,52%,"COc1cccc(-c2nc3c(C)cccn3c2NC(C)(C)CC(C)(C)C)c1OC [Example 117, [2-(2,3-Dimethoxy-phenyl)-8-methyl-imidazo[1,2-a]pyridin-3-yl]-(1,1,3,3-tetramethyl-butyl)-amine]"
10,56%,"Cc1cccn2c(NC(C)(C)C)c(-c3ccccn3)nc12 [Example 120, Tert-butyl-(8-methyl-2-pyridin-2-yl-imidazo[1,2-a]pyridin-3-yl)-amine]"
11,53%,"Cc1cccn2c(NC3CCCCC3)c(-c3ccco3)nc12 [Example 121, Cyclohexyl-(2-furan-2-yl-8-methyl-imidazo[1,2-a]pyridin-3-yl)-amine]"
